Assay results reported in the NIST ThermoML archive (doi:10.1016/j.fluid.2008.11.013).
± gives the expanded uncertainty stated by the source.

Details: 101.33 kPa, Liquid, Vibrating tube method

| SMILES | mass density (298.15 K) [kg/m3] | mass density (303.15 K) [kg/m3] | mass density (308.14 K) [kg/m3] | mass density (313.15 K) [kg/m3] | mass density (318.15 K) [kg/m3] | mass density (323.14 K) [kg/m3] | mass density (328.14 K) [kg/m3] | mass density (333.14 K) [kg/m3] | mass density (338.14 K) [kg/m3] | mass density (343.14 K) [kg/m3] | mass density (348.15 K) [kg/m3] | mass density (278.16 K) [kg/m3] | mass density (283.14 K) [kg/m3] | mass density (288.14 K) [kg/m3] | mass density (293.15 K) [kg/m3] | mass density (298.14 K) [kg/m3] | mass density (303.14 K) [kg/m3] | mass density (313.14 K) [kg/m3] | mass density (318.14 K) [kg/m3] | mass density (338.15 K) [kg/m3] |
| --- | --- | --- | --- | --- | --- | --- | --- | --- | --- | --- | --- | --- | --- | --- | --- | --- | --- | --- | --- | --- |
| CCCCCCCC[N+]1(C)CCCC1.O=S(=O)([N-]S(=O)(=O)C(F)(F)F)C(F)(F)F | 1291.2 ± 12 | 1286.9 ± 12 | 1283 ± 12 | 1279.1 ± 12 | 1275.1 ± 11 | 1271.4 ± 11 | 1267.5 ± 11 | 1263.7 ± 11 | 1259.7 ± 11 | 1255.7 ± 11 | 1251.7 ± 11 |  |  |  |  |  |  |  |  |  |
| CCCCCC[N+]1(C)CCCC1.O=S(=O)([N-]S(=O)(=O)C(F)(F)F)C(F)(F)F |  |  | 1326.8 ± 12 |  |  | 1314.1 ± 12 | 1309.9 ± 12 | 1305.6 ± 12 |  | 1297.1 ± 12 |  | 1352.1 ± 13 | 1347.7 ± 13 | 1343.4 ± 13 | 1339.5 ± 13 | 1335.3 ± 13 | 1331.1 ± 12 | 1322.6 ± 12 | 1318.3 ± 12 | 1301.4 ± 12 |
